This note sets out measurements from patent US20220235043A1, “SUBSTITUTED SULFONAMIDE PYRROLOPYRIDINES AS JAK INHIBITORS” (ACLARIS THERAPEUTICS, INC., priority 2019, published 2022).

Usually IC50 stands for the concentration that inhibits the measured activity by half.

Test [1] concerns the target T1, Tyk-2 (Homo sapiens, UniProt P29597).
T1 construct: purchased Thermo Fisher Scientific (SelectScreen service)
In words: Tyk-2 enzyme activity assay (Thermo Fisher Selectscreen, Z-lyte). The class given is biochemical. The following applies: read-out: Tyk-2 Inhibition IC50. The procedure: (§1) The inhibitory potency of candidate compounds of JAK1, JAK2, and Tyk-2 was done at Thermo Fisher Scientific in their Selectscreen using a Z-lyte assay. Following are the assay details for each enzyme.
TYK2: The 2×TYK2/Tyr 03 mixture is prepared in 50 mM HEPES pH 6.5, 0.01% BRIJ-35, 10 mM MgCl2, 1 mM EGTA, 0.02% NaN3. The final 10 μL Kinase Reaction consists of 3.75-15 ng TYK2 and 2 μM Tyr 03 in 50 mM HEPES pH 7.0, 0.01% BRIJ-35, 10 mM MgCl2, 1 mM EGTA, 0.01% NaN3. After the one hour KinaseReaction incubation, 5 μL of a 1:4096 dilution of Development Reagent A is added.
(§2) Data reduction for JAK1, JAK2 and TYK2 is done the same, independent of the enzyme run. In summary, background signal is defined in the absence of enzyme and uninhibited signal is defined in the presence of vehicle (2% DMSO) alone. Compounds were evaluated in an 11 point dose-response ranging from […] to 0.34 nM. IC50 values of compounds are determined using a 4 parameter logistical fit of emission ratio as a function of the concentration of compound.

Test [2] has as its target T2, JAK1 (Homo sapiens, UniProt P23458).
T2 construct: purchased Thermo Fisher Scientific (SelectScreen service)
Nature of the test: JAK1 enzyme activity assay (Thermo Fisher Selectscreen, Z-lyte). The format is biochemical. The settings on record: read-out: JAK1 Inhibition IC50. On the procedure: as §1
JAK1: The 2×JAK-enzyme/Tyr 06 mixture is prepared in 50 mM HEPES pH 6.5, 0.01% BRIJ-35, 10 mM MgCl2, 1 mM EGTA, 0.02% NaN3. The final 10 μL of the Kinase Reaction consists of 21.2-91.5 ng JAK1 and 2 μM Tyr 06 in 50 mM HEPES pH 7.0, 0.01% BRIJ-35, 10 mM MgCl2, 1 mM EGTA, 0.01% NaN3. After the one hour Kinase Reaction incubation, 5 μL of a 1:128 dilution of Development Reagent is added.
as §2

Test [3] deals with IL-12 stimulated STAT4 phosphorylation on Tyr693 (JAK2/TYK2). Nature of the test: JAK2/TYK2 cellular target modulation: IL-12 stimulated phospho-STAT4 in human PBMC. The format is cell-based. The following applies: IL-12 1.7 ng/ml, read-out: IL12-STAT4 IC50. The text has this:
(§3) Target modulation was based upon the ability of a compound to inhibit JAK isoform specific phosphorylation of selected substrates. IL-2 stimulated STAT5 phosphorylation on Tyr694 was used to assess JAK1/3 compound selectivity. GM-CSF stimulated STAT5 phosphorylation on Tyr694 was used to assess JAK2 compound selectivity. IFNγ stimulated STAT1 phosphorylation on Tyr701 was used to assess JAK1/2 compound selectivity. IL-12 stimulated STAT4 phosphorylation on Tyr693 was used to assess JAK2/TYK2 compound selectivity. For all four assays, human PBMC from frozen stocks were thawed, pelleted, resuspended in complete media (90% RPMI, 10% heat inactivated FBS, 10 mM HEPES, 47 μM 2-ME, pen/strep) and placed in wells of a 96 well V-bottom plate at 200,000 per well in 120 μl complete media. Compounds were added as 15 μl per well of 10× working stock solutions in complete media with 1% DMSO (or medium with 1% DMSO for controls) and placed on a plate shaker in a 37° C. incubator with 5% CO2 for 1 hour with gentle shaking (setting of 3). Stimulation used the addition of soluble cytokines. For the JAK1/3 phospho-STAT5 assay, 15 μl of 10× working stock recombinant human IL-2 was added to a final concentration of 25 ng/ml. For the JAK2 phospho-STAT5 assay, 15 μl of 10× working stock recombinant human GM-CSF was added to a final concentration of 5 ng/ml. For the JAK1/2 phospho-STAT1 assay, 15 μl of 10× working stock of recombinant human IFNγ was added to a final concentration of 10 ng/ml. For the JAK2/TYK2 phospho-STAT4 assay, 15 μl of 10× working stock of recombinant human IL-12 was added to a final concentration of 1.7 ng/ml. Plates were then placed back on the plate shaker in the incubator for an additional 5, 5, 10, and 25 minutes respectively upon which the plates were removed from the incubator, sealed with a plate sealer and the cells pelleted at 400×g for 5 minutes. After pelleting, the media was removed by aspiration and the cells were lysed in assay specific cell lysis buffer. The levels of phospho-STAT5 were determined using a Phospho (Tyr694)STAT5a,b Whole Cell Lysate kit from Meso Scale Discovery. Levels of phospho-STAT1 were determined using a CST-PathScan Phospho-STAT1 (Tyr701) Sandwich ELISA kit. Levels of phospho-STAT4 were determined using a Phospho-STAT4 (Tyr693) Whole Cell Lysate kit from Meso Scale Discovery.

Test [4] concerns the target T3, JAK2 (Homo sapiens, UniProt O60674).
T3 construct: purchased Thermo Fisher Scientific (SelectScreen service)
In words: JAK2 enzyme activity assay (Thermo Fisher Selectscreen, Z-lyte). The format is biochemical. The following applies: read-out: JAK2 Inhibition IC50. The procedure:
as §1
JAK2: The 2×JAK2/Tyr 06 mixture is prepared in 50 mM HEPES pH 7.5, 0.01% BRIJ-35, 10 mM MgCl2, 1 mM EGTA. The final 10 μL Kinase Reaction consists of 0.12-0.5 ng JAK2 and 2 μM Tyr 06 in 50 mM HEPES pH 7.5, 0.01% BRIJ-35, 10 mM MgCl2, 1 mM EGTA. After the one hour Kinase Reaction incubation, 5 μL of a 1:128 dilution of Development Reagent A is added.
as §2

Test [5] deals with IFNγ stimulated STAT1 phosphorylation on Tyr701 (JAK1/2). In words: JAK1/2 cellular target modulation: IFNγ stimulated phospho-STAT1 in human PBMC. The format is cell-based. The settings on record: IFNγ 10 ng/ml, read-out: Infγ-STAT1 IC50.
Excerpt: as §3

For test [6], the system named is IL-2 stimulated STAT5 phosphorylation on Tyr694 (JAK1/3). In words: JAK1/3 cellular target modulation: IL-2 stimulated phospho-STAT5 in human PBMC. The following applies: IL-2 25 ng/ml, read-out: IL2-STAT5 IC50. The class given is cell-based.
Excerpt: as §3

For test [7], the target named is T4, JAK3 (a.a. 781-1124) (Homo sapiens, UniProt P52333).
T4 construct: JAK3 (a.a. 781-1124, ThermoFisher); purchased ThermoFisher
In words: JAK3 enzyme activity assay (SRCtide phosphorylation, Caliper). The class given is biochemical. The settings on record: 1 uM ATP; read-out: JAK3 Inhibition IC50. The procedure: The activity of JAK3 (a.a. 781-1124, ThermoFisher) was quantified by measuring the phosphorylation of SRCtide (FAM-GEEPLYWSFPAKKK-NH2). Kinase reactions were run in a 384-well Greiner plate with 2% final DMSO concentration under the buffer conditions of 20 mM HEPES, pH 7.5, 10 mM MgCl2, 0.01% BSA, and 0.0005% Tween-20. The kinase reaction components were 2.5 nM JAK3, 1 μM SRCtide peptide and 1 uM ATP. Examples were tested in dose-response starting at […] (11 concentrations, 3-fold serial dilution, duplicate reactions). The reactions were incubated at room temperature for 40 minutes, then stopped by adding a 1:1 volume of 30 mM EDTA in 20 mM HEPES, pH 7.5 (15 mM EDTA final). After the reaction was stopped, the phosphorylated and unphosphorylated peptides were separated and quantified using a Caliper LC3000/EZ-Reader system and HTS Well Analyzer Software (Caliper, A PerkinElmer Company, Hopkinton, Mass.). GraFit (Erithacus Software Ltd., Horley, U.K.) was used to calculate inhibitor potency by fitting dose-response data to the 4-parameter logistical IC50 equation.

Where only a bound is given, the exact number is not on record here.

T2 sequence (P23458 whole entry): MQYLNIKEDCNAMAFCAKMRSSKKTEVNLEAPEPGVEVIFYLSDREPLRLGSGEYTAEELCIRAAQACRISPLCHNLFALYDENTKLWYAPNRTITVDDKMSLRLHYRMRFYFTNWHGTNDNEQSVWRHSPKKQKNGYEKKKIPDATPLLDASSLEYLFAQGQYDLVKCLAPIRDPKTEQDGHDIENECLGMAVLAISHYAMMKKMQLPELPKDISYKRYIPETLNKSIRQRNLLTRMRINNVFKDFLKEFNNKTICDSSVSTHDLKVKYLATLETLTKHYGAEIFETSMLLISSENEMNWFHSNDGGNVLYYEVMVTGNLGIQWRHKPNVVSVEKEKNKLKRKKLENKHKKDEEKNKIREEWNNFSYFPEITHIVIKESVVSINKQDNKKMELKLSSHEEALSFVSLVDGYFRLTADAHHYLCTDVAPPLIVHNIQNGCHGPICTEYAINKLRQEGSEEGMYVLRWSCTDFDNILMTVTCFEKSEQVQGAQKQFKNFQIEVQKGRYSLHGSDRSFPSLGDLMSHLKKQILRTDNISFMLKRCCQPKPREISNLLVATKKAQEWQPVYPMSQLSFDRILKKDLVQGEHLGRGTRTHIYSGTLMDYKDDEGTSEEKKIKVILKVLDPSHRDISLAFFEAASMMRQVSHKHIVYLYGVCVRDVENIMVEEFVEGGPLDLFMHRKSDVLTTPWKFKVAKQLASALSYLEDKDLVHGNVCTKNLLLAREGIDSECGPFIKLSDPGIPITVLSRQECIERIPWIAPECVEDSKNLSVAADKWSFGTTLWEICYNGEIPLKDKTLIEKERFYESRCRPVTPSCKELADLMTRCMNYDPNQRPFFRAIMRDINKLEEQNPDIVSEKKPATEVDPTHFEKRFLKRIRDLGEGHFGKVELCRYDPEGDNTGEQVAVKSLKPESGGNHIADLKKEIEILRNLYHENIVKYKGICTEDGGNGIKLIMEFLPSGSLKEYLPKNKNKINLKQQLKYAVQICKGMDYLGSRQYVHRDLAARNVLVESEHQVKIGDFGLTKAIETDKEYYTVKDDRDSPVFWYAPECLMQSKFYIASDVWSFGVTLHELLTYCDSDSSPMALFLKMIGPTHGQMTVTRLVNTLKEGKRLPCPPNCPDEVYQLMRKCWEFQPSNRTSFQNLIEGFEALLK
T4 sequence (P52333 781-1124): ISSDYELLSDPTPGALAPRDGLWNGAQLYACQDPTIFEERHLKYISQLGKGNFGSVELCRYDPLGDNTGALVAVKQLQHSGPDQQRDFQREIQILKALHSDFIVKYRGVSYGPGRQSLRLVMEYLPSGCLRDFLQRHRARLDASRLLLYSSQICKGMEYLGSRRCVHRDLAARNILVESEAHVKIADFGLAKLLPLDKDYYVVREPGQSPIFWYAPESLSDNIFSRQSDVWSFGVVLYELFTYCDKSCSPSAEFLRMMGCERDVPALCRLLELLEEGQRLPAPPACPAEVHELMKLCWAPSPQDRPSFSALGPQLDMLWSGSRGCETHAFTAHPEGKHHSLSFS
T3 sequence (O60674 whole entry): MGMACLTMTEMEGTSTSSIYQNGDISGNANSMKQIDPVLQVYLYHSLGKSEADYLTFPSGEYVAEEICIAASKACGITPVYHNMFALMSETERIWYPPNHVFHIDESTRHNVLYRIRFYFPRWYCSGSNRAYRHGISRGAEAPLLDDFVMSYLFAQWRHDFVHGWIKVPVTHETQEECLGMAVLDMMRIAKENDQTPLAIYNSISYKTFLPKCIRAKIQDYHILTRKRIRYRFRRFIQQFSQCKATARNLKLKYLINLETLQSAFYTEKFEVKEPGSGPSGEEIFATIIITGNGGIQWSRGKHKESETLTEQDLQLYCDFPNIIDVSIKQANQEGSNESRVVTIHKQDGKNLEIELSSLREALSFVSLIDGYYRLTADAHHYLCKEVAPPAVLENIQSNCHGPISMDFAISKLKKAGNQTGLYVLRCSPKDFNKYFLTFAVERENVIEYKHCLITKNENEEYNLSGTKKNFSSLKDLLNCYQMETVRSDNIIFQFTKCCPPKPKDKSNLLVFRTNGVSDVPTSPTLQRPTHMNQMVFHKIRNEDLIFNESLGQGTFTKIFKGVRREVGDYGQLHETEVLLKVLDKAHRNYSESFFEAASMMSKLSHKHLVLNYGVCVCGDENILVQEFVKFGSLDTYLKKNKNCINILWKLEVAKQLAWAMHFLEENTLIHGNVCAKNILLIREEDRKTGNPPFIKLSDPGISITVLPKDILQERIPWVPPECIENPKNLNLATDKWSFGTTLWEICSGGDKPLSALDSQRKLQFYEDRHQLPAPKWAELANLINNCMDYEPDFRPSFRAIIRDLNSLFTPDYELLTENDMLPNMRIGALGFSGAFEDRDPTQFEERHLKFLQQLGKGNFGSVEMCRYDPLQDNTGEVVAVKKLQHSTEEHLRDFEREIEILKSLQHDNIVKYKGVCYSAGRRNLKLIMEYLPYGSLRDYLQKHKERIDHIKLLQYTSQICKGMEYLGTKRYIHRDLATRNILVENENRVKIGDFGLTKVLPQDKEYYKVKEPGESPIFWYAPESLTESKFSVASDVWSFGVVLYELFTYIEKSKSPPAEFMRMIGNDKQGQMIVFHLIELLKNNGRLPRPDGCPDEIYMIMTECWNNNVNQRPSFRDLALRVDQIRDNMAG
T1 sequence (P29597 whole entry): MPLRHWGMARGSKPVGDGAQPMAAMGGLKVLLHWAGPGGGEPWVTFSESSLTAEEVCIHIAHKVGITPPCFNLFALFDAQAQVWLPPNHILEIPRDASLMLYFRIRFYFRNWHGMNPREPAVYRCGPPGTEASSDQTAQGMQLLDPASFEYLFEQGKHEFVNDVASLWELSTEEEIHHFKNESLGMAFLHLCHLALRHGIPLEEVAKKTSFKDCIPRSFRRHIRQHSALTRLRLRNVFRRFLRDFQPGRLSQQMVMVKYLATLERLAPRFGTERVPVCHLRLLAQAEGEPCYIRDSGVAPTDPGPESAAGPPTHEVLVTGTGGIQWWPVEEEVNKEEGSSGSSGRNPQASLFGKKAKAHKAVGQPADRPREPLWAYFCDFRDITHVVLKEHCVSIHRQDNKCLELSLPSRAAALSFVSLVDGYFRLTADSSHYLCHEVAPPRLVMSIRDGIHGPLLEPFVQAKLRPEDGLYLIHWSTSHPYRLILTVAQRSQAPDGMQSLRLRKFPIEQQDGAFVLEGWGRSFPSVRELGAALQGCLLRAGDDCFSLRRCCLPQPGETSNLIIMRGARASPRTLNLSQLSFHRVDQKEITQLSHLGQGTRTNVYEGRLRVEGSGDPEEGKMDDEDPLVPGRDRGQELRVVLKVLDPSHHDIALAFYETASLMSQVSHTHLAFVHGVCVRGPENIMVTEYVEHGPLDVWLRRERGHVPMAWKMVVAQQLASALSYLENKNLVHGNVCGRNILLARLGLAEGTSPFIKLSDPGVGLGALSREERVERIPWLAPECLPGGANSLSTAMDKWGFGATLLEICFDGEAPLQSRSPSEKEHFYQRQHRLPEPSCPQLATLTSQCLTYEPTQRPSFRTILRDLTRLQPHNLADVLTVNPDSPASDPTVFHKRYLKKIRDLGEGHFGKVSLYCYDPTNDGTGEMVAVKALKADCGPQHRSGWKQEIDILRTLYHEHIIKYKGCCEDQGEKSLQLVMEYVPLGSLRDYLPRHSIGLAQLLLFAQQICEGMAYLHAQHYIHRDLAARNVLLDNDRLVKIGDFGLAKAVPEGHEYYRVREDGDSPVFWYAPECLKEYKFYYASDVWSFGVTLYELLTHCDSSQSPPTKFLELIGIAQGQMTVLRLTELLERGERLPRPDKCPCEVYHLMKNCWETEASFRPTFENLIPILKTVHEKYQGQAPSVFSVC

Consider `CCCS(=O)(=O)N[C@H]1C[C@@H](Nc2c(-c3nccs3)cnc3[nH]ccc23)C1` [Example 70, N-((1s,3s)-3-((5-(thiazol-2-yl)-1H-pyrrolo[2,3-b]pyridin-4-yl)amino)cyclobutyl)propane-1-sulfonamide], for which the IC50 was 10 to 100 nM in test [1]; at most 10 nM in test [2]; above 1000 nM in test [3]; 10 to 100 nM in test [4]; 100 to 1000 nM in test [5]; at most 100 nM in test [6]. In addition, the IC50 in test [7] was 10 to 100 nM.

Take `CCOC(=O)c1cnc2[nH]ccc2c1N[C@H]1C[C@@H](NS(=O)(=O)c2cccc(C#N)c2)C1` [Example 2, cis-Ethyl 4-((3-((3-cyanophenyl)sulfonamido)cyclobutyl)amino)-1H-pyrrolo[2,3-b]pyridine-5-carboxylate]: the IC50 is 10 to 100 nM in test [1]; at most 10 nM in test [2]; 10 to 100 nM in test [4]; 100 to 1000 nM in test [5]; at most 100 nM in test [6]; 10 to 100 nM in test [7].

`CCOC(=O)c1cnc2[nH]ccc2c1N[C@H]1C[C@H](NS(=O)(=O)c2cccc(C#N)c2)C1` [Example 3, trans-Ethyl 4-((3-((3-cyanophenyl)sulfonamido)cyclobutyl)amino)-1H-pyrrolo[2,3-b]pyridine-5-carboxylate]: the IC50 in test [1] is 10 to 100 nM; in test [2], at most 10 nM; in test [4], 10 to 100 nM; in test [5], 100 to 1000 nM; in test [6] it was 100 to 1000 nM; in test [7], 10 to 100 nM.

For the compound `CCCS(=O)(=O)N[C@H]1C[C@@H](Nc2c(-c3nnco3)cnc3[nH]ccc23)C1` [Example 80, N-((1s,3s)-3-((5-(1,3,4-oxadiazol-2-yl)-1H-pyrrolo[2,3-b]pyridin-4-yl)amino)cyclobutyl)propane-1-sulfonamide], the half-inhibitory concentration (IC50) in test [1] is 100 to 1000 nM; in test [2], 10 to 100 nM; in test [3] it was above 1000 nM; in test [4], 10 to 100 nM; in test [6], 100 to 1000 nM; in test [7] it was 10 to 100 nM.

Take `CCOC(=O)c1cnc2[nH]ccc2c1N[C@H]1C[C@H](NS(=O)(=O)c2cc(C#N)ccn2)C1` [Example 4, ethyl 4-(((1r,3r)-3-((4-cyanopyridine)-2-sulfonamido)cyclobutyl)amino)-1H-pyrrolo[2,3-b]pyridine-5-carboxylate]: the half-maximal inhibitory concentration (IC50) was 100 to 1000 nM in test [1]; 10 to 100 nM in test [2]; 10 to 100 nM in test [4]; above 1000 nM in test [6]; 10 to 100 nM in test [7].

For `CCCS(=O)(=O)N[C@H]1C[C@@H](Nc2c(-c3cc(C(=O)NC)ccn3)cnc3[nH]ccc23)C1` [Example 68, N-methyl-2-(4-(((1s,3s)-3-(propylsulfonamido)cyclobutyl)amino)-1H-pyrrolo[2,3-b]pyridin-5-yl)isonicotinamide], the IC50 is 100 to 1000 nM in test [1]; 10 to 100 nM in test [2]; 100 to 1000 nM in test [4]; above 1000 nM in test [6]; 10 to 100 nM in test [7].

Consider `CCOC(=O)c1cnc2[nH]ccc2c1NC1CC(NS(=O)(=O)c2cc(C#N)ccn2)C1` (mixture of isomers) [Example 1, ethyl 4-((3-((4-cyanopyridine)-2-sulfonamido)cyclobutyl)amino)-1H-pyrrolo[2,3-b]pyridine-5-carboxylate], for which the IC50 in test [1] is 100 to 1000 nM; in test [2] it was 10 to 100 nM; in test [4] it was 100 to 1000 nM; in test [5], above 1000 nM; in test [6], 100 to 1000 nM; in test [7] it was 10 to 100 nM.

On to `CNC(=O)c1ccnc(-c2cnc3[nH]ccc3c2N[C@H]2C[C@@H](NS(=O)(=O)c3cc(C#N)ccn3)C2)c1` [Example 67, 2-(4-(((1s,3s)-3-((4-cyanopyridine)-2-sulfonamido)cyclobutyl)amino)-1H-pyrrolo[2,3-b]pyridin-5-yl)-N-methylisonicotinamide], for which the IC50 in test [1] is 10 to 100 nM; in test [2], at most 10 nM; in test [4], 10 to 100 nM; in test [5] it was above 1000 nM; in test [6], 100 to 1000 nM; in test [7], 100 to 1000 nM.

With `Cc1nnc(-c2cnc3[nH]ccc3c2N[C@H]2C[C@@H](NS(=O)(=O)c3cc(C#N)ccn3)C2)o1` [Example 83, 4-cyano-N-((1s,3s)-3-((5-(5-methyl-1,3,4-oxadiazol-2-yl)-1H-pyrrolo[2,3-b]pyridin-4-yl)amino)cyclobutyl)pyridine-2-sulfonamide], the IC50 was above 1000 nM in test [1], 100 to 1000 nM in test [2], 100 to 1000 nM in test [4] and above 1000 nM in test [7].

Consider `CCCS(=O)(=O)N[C@H]1C[C@@H](Nc2c(-c3ncco3)cnc3[nH]ccc23)C1` [Example 65, N-((1s,3s)-3-((5-(1,3-oxazol-2-yl)-1H-pyrrolo[2,3-b]pyridin-4-yl)amino)cyclobutyl)propane-1-sulfonamide], for which the IC50 in test [1] is 10 to 100 nM; in test [2], at most 10 nM; in test [3] it was above 1000 nM; in test [4], at most 10 nM; in test [6] it was at most 100 nM; in test [7], 10 to 100 nM.
